Values of other authors, collected in article PMC10323144, “Garbage in, garbage out: how reliable training data improved a virtual screening approach against SARS-CoV-2 MPro” (Frontiers in Pharmacology, 2023).
Square brackets hold non-standard residues; d marks the D form. Peptide text beside a SMILES is read from it. Nle = CCCC[CH](N)C(=O)O

System: MPro
Details: compiled from peer-reviewed sources (287 compounds) ref the 18 original articles; cited from earlier work

For `CC(C)CC(NC(=O)OCc1ccccc1)C(=O)NC(CC1CCNC1=O)C(O)S(=O)(=O)O` (stereo not shown) [GC-376], the “Class (MPro activity class)” value is given as 1 (Compounds with IC50 < 10 µM or with a percentage of enzyme inhibition >50% at 10 µM were labelled as ACTIVE).
For `COC(=O)N[C@H](C(=O)N1CCC[C@H]1c1nc(-c2ccc(-c3ccc(-c4c[nH]c([C@@H]5CCCN5C(=O)[C@@H](NC(=O)OC)C(C)C)n4)cc3)cc2)c[nH]1)C(C)C` [Daclatasvir], the “Class (MPro activity class)” value is listed as 0 (compounds with IC50 > 20 μM, percentage inhibition <80% at 20 µM or 50 μM, or percentage enzyme inhibition <50% at 10 µM were labelled as INACTIVE).
For `CCCCC(C=O)NC(=O)C(CC(C)C)NC(=O)C(CC(C)C)NC(C)=O` (stereo not drawn) [Calpain inhibitor I] (Ac-Leu-Leu-[Nle]-aldehyde; configuration not given here), the “Class (MPro activity class)” value is given as 1 (Compounds with IC50 < 10 µM or with a percentage of enzyme inhibition >50% at 10 µM were labelled as ACTIVE).
For `NC(=O)[C@@H](CCC(F)(F)F)N(Cc1ccc(-c2ncon2)cc1F)S(=O)(=O)c1ccc(Cl)cc1` [Avagacestat], the “Class (MPro activity class)” value is given as 0 (compounds with IC50 > 20 μM, percentage inhibition <80% at 20 µM or 50 μM, or percentage enzyme inhibition <50% at 10 µM were labelled as INACTIVE).
In the case of `Cc1ccccc1COc1cc(Cl)cc(-c2cc(-c3c[nH]c(=O)[nH]c3=O)cn(-c3cccnc3)c2=O)c1` [compound 16], the “Class (MPro activity class)” value is listed as 1 (Compounds with IC50 < 10 µM or with a percentage of enzyme inhibition >50% at 10 µM were labelled as ACTIVE).
In the case of `CC(C)CC(NC(=O)OCc1ccccc1)C(=O)NC(CC1CCNC1=O)C(=O)C(=O)NC1CC1` (stereo not shown) [UAWJ246], the “Class (MPro activity class)” value is given as 1 (Compounds with IC50 < 10 µM or with a percentage of enzyme inhibition >50% at 10 µM were labelled as ACTIVE).
In the case of `CC(O)(CS(=O)(=O)c1ccc(F)cc1)C(=O)Nc1ccc(C#N)c(C(F)(F)F)c1` (stereo not shown) [Bicalutamide], the “Class (MPro activity class)” value is listed as 0 (compounds with IC50 > 20 μM, percentage inhibition <80% at 20 µM or 50 μM, or percentage enzyme inhibition <50% at 10 µM were labelled as INACTIVE).
For `O=C(CCl)N1CCN(S(=O)(=O)C2=CC[SH]=C2)CC1` [MAK-UNK-d4768348-1], the “Class (MPro activity class)” value is given as 1 (Compounds with IC50 < 10 µM or with a percentage of enzyme inhibition >50% at 10 µM were labelled as ACTIVE).
For `CC(C)Nc1cccnc1N1CCN(C(=O)c2cc3cc(NS(C)(=O)=O)ccc3[nH]2)CC1` [Delavirdine], the “Class (MPro activity class)” value is listed as 0 (compounds with IC50 > 20 μM, percentage inhibition <80% at 20 µM or 50 μM, or percentage enzyme inhibition <50% at 10 µM were labelled as INACTIVE).
In the case of `NS(=O)(=O)CCc1ccccc1CN1CCN(C(=O)CCl)CC1` [MIH-UNI-e573136b-5], the “Class (MPro activity class)” value is listed as 1 (Compounds with IC50 < 10 µM or with a percentage of enzyme inhibition >50% at 10 µM were labelled as ACTIVE).
In the case of `CCn1c(=O)c(-c2cc[nH]n2)cc2c(C)nc(N)nc21` [VOXTALISIB], the “Class (MPro activity class)” value is given as 0 (compounds with IC50 > 20 μM, percentage inhibition <80% at 20 µM or 50 μM, or percentage enzyme inhibition <50% at 10 µM were labelled as INACTIVE).
For `CCCOc1cc(Cl)cc(-c2cc(-c3ccccc3C#N)cn(-c3cncnc3)c2=O)c1` [compound 9], the “Class (MPro activity class)” value is listed as 1 (Compounds with IC50 < 10 µM or with a percentage of enzyme inhibition >50% at 10 µM were labelled as ACTIVE).
In the case of `CCC[C@@]1(CCc2ccccc2)CC(O)=C([C@H](CC)c2cccc(NS(=O)(=O)c3ccc(C(F)(F)F)cn3)c2)C(=O)O1` [Tipranavir], the “Class (MPro activity class)” value is listed as 0 (compounds with IC50 > 20 μM, percentage inhibition <80% at 20 µM or 50 μM, or percentage enzyme inhibition <50% at 10 µM were labelled as INACTIVE).
For `O=C(O)CC[C@H]1CC[C@@](c2cc(F)ccc2F)(S(=O)(=O)c2ccc(Cl)cc2)CC1` [MK-0752], the “Class (MPro activity class)” value is given as 0 (compounds with IC50 > 20 μM, percentage inhibition <80% at 20 µM or 50 μM, or percentage enzyme inhibition <50% at 10 µM were labelled as INACTIVE).
For `O=CC(CC1CCNC1=O)NC(=O)C(Cc1cccc(F)c1)NC(=O)c1cc2ccccc2[nH]1` (stereo not shown) [11b], the “Class (MPro activity class)” value is listed as 1 (Compounds with IC50 < 10 µM or with a percentage of enzyme inhibition >50% at 10 µM were labelled as ACTIVE).
In the case of `COC[C@H](NC(=O)c1cnc(C)s1)C(=O)N[C@@H](COC)C(=O)N[C@@H](Cc1ccccc1)C(=O)[C@@]1(C)CO1` [Oprozomib], the “Class (MPro activity class)” value is listed as 0 (compounds with IC50 > 20 μM, percentage inhibition <80% at 20 µM or 50 μM, or percentage enzyme inhibition <50% at 10 µM were labelled as INACTIVE).
In the case of `COc1ccc(O)c(C=NN2C(=O)c3ccccc3NC2c2cc(OC)ccc2O)c1` (stereo not shown) [QZ4], the “Class (MPro activity class)” value is listed as 1 (Compounds with IC50 < 10 µM or with a percentage of enzyme inhibition >50% at 10 µM were labelled as ACTIVE).
For `CCCc1ccc(OCC(=O)N(Cc2nc(-c3cccnc3)no2)C(C)C)cc1` [PI-1840], the “Class (MPro activity class)” value is listed as 0 (compounds with IC50 > 20 μM, percentage inhibition <80% at 20 µM or 50 μM, or percentage enzyme inhibition <50% at 10 µM were labelled as INACTIVE).
For `O=C(Nc1cccnc1)N(CCC1CCCCC1)c1cccc(Cl)c1` [JOR-UNI-2fc98d0b-12], the “Class (MPro activity class)” value is listed as 1 (Compounds with IC50 < 10 µM or with a percentage of enzyme inhibition >50% at 10 µM were labelled as ACTIVE).
In the case of `CC1=C(C(=O)O)N2C(=O)[C@@H](NC(=O)[C@H](N)c3ccccc3)[C@H]2SC1` [CEPHALEXIN], the “Class (MPro activity class)” value is listed as 0 (compounds with IC50 > 20 μM, percentage inhibition <80% at 20 µM or 50 μM, or percentage enzyme inhibition <50% at 10 µM were labelled as INACTIVE).
In the case of `COC(=O)N[C@H](C(=O)N1CCC[C@H]1C(=O)Nc1ccc([C@@H]2CC[C@@H](c3ccc(NC(=O)[C@@H]4CCCN4C(=O)[C@@H](NC(=O)OC)C(C)C)cc3)N2c2ccc(C(C)(C)C)cc2)cc1)C(C)C` [Ombitasvir], the “Class (MPro activity class)” value is given as 0 (compounds with IC50 > 20 μM, percentage inhibition <80% at 20 µM or 50 μM, or percentage enzyme inhibition <50% at 10 µM were labelled as INACTIVE).
For `O=C(CCl)N1CCN(S(=O)(=O)c2cccs2)CC1` [LON-WEI-8f408cad-3], the “Class (MPro activity class)” value is given as 1 (Compounds with IC50 < 10 µM or with a percentage of enzyme inhibition >50% at 10 µM were labelled as ACTIVE).
In the case of `O=C(CCl)N1CC2CC1CN2Cc1cccc(Cl)c1` (stereo not shown) [DAN-LON-a5fc619e-8], the “Class (MPro activity class)” value is listed as 1 (Compounds with IC50 < 10 µM or with a percentage of enzyme inhibition >50% at 10 µM were labelled as ACTIVE).
In the case of `CC(C)(C#N)c1cc(Cn2cncn2)cc(C(C)(C)C#N)c1` [Anastrozole], the “Class (MPro activity class)” value is listed as 0 (compounds with IC50 > 20 μM, percentage inhibition <80% at 20 µM or 50 μM, or percentage enzyme inhibition <50% at 10 µM were labelled as INACTIVE).
For `O=C(/C=C/c1ccc(O)c(O)c1)O[C@@H]1C[C@](O)(C(=O)O)C[C@@H](O)[C@H]1O` [Chlorogenic acid], the “Class (MPro activity class)” value is given as 0 (compounds with IC50 > 20 μM, percentage inhibition <80% at 20 µM or 50 μM, or percentage enzyme inhibition <50% at 10 µM were labelled as INACTIVE).
In the case of `CC(C)CC(C=O)NC(=O)C(NS(=O)(=O)c1ccc(F)cc1)C(C)C` (stereo not shown) [Calpain inhibitor VI], the “Class (MPro activity class)” value is listed as 0 (compounds with IC50 > 20 μM, percentage inhibition <80% at 20 µM or 50 μM, or percentage enzyme inhibition <50% at 10 µM were labelled as INACTIVE).
In the case of `O=c1[nH]cc(-c2cc(-c3cc(Cl)cc(OCc4ccccc4Cl)c3)c(=O)n(-c3cccnc3)c2)c(=O)[nH]1` [compound 21], the “Class (MPro activity class)” value is given as 1 (Compounds with IC50 < 10 µM or with a percentage of enzyme inhibition >50% at 10 µM were labelled as ACTIVE).
For `COc1ccc(CC(NC(=O)C(C)NC(=O)CN2CCOCC2)C(=O)NC(Cc2ccccc2)C(=O)C2(C)CO2)cc1` (stereo not shown) [ONX-0914], the “Class (MPro activity class)” value is given as 0 (compounds with IC50 > 20 μM, percentage inhibition <80% at 20 µM or 50 μM, or percentage enzyme inhibition <50% at 10 µM were labelled as INACTIVE).
